In patent publication US20070128217A1 (priority 2003, published 2007):

Tests used:
[1] = system: control sera (pooled serum of ten healthy LUMC hospital workers; commercial negative donor pooled serum from the Dutch bloodbank); type: binding, human; design: Binding of Control serum LUMC to linear peptides / Binding of Control serum Blood-bank to linear peptides / Binding of Control serum LUMC to looped peptides / Binding of Control Serum Blood-Bank to Looped peptides / Binding of Control serum LUMC to linear peptides of the protein M of SARS-CoV Urbani / Binding of Control serum Blood-bank to linear peptides of the protein M of SARS-CoV Urbani / Binding of Control serum LUMC to looped peptides of the protein M of SARS-CoV Urbani / Binding of Control Serum Blood-Bank to Looped peptides of the protein M of SARS-CoV Urbani: unit not given here
[2] = system: antibodies in sera from SARS patients (sera 1a, 1b, 2, 6, 37, 62, London, SARS-yellow, SARS-green); type: binding, human; design: Binding of serum 6 to linear peptides of protein X1 of SARS-CoV Urbani / Binding of serum 37 to linear peptides of protein X1 of SARS-CoV Urbani / Binding of serum 6 to looped/cyclic peptide (PEPSCAN-ELISA) / Binding of serum 37 to looped/cyclic peptide (PEPSCAN-ELISA) / Binding of serum 37 to looped/cyclic peptides of protein X1 of SARS-CoV Urbani / Binding of serum 6 to linear peptides of protein X2 / Binding of serum 37 to linear peptides of protein X2 / Binding of serum 37 to looped/cyclic peptides of protein X2 of SARS-CoV Urbani / Binding of serum 6 to linear peptides of protein M of SARS-CoV Urbani / Binding of serum 37 to linear peptides of protein M of SARS-CoV Urbani / Binding of serum 6 to looped/cyclic peptides of protein M of SARS-CoV Urbani / Binding of serum 37 to looped/cyclic peptides of protein M of SARS-CoV Urbani / Binding of serum 6 to linear peptides of protein X3 of SARS-CoV Urbani / Binding of serum 37 to linear peptides of protein X3 of SARS-CoV Urbani / Binding of serum 37 to looped/cyclic peptides of protein X3 of SARS-CoV Urbani / Binding of serum 6 to linear peptides of protein X4 of SARS-CoV Urbani / Binding of serum 37 to linear peptides of protein X4 of SARS-CoV Urbani / Binding of serum 37 to looped/cyclic peptides of protein X4 of SARS-CoV Urbani / Binding of serum 6 to linear peptides of protein X5 of SARS-CoV Urbani / Binding of serum 37 to linear peptides of protein X5 of SARS-CoV Urbani / Binding of serum 37 to looped/cyclic peptides of protein X5 of SARS-CoV Urbani / Binding of serum 6 to linear peptides of protein N of SARS-CoV Urbani / Binding of serum 37 to linear peptides of protein N of SARS-CoV Urbani / Binding of serum 6 to linear peptide (PEPSCAN-ELISA) / Binding of serum 1a to looped/cyclic peptides of protein N of SARS-CoV Urbani / Binding of serum 1b to looped/cyclic peptides of protein N of SARS-CoV Urbani / Binding of serum 2 to looped/cyclic peptides of protein N of SARS-CoV Urbani / Binding of serum 6 to looped/cyclic peptides of protein N of SARS-CoV Urbani / Binding of serum 37 to looped/cyclic peptides of protein N of SARS-CoV Urbani / Binding of serum 62 to looped/cyclic peptides of protein N of SARS-CoV Urbani / Binding of serum London to looped/cyclic peptides of protein N of SARS-CoV Urbani / Binding of serum SARS-green to looped/cyclic peptides of protein N of SARS-CoV Urbani: unit not given here
[3] = system: rabbit serum obtained by immunizing a rabbit with the SARS-CoV strain Frankfurt 1; type: binding; design: Binding of a rabbit serum to linear peptides / Binding of a rabbit serum to looped peptides / Rabbit serum linear peptides / Rabbit serum looped peptides / Binding of a rabbit serum to linear peptides of protein N of SARS-CoV Urbani (Rabbit serum linear peptides) / Binding of a rabbit serum to looped/cyclic peptides of protein N of SARS-CoV Urbani (Rabbit serum looped peptides): unit not given here

| Sequence | Binding of Control Serum Blood-Bank to Looped peptides [1] | Binding of Control serum Blood-bank to linear peptides [1] | Binding of Control serum LUMC to linear peptides [1] | Binding of Control serum LUMC to looped peptides [1] | Binding of serum 1a to looped/cyclic peptides of protein X2 of SARS-CoV Urbani [2] | Binding of serum 1b to looped/cyclic peptides of protein X2 of SARS-CoV Urbani [2] | Binding of serum 2 to looped/cyclic peptides of protein X2 of SARS-CoV Urbani [2] | Binding of serum 6 to looped/cyclic peptides of protein X2 of SARS-CoV Urbani [2] | Binding of serum 37 to looped/cyclic peptides of protein X2 of SARS-CoV Urbani [2] | Binding of serum 62 to looped/cyclic peptides of protein X2 of SARS-CoV Urbani [2] | Binding of serum London to looped/cyclic peptides of protein X2 of SARS-CoV Urbani [2] | Binding of serum SARS-green to looped/cyclic peptides of protein X2 of SARS-CoV Urbani [2] | Binding of serum SARS-yellow to looped/cyclic peptides of protein X2 of SARS-CoV Urbani [2] | Binding of a rabbit serum to linear peptides [3] | Binding of a rabbit serum to looped peptides [3] | other results |
| --- | --- | --- | --- | --- | --- | --- | --- | --- | --- | --- | --- | --- | --- | --- | --- | --- |
| ISPKFTTSLSLHKLL | 0.7 | 0.7 | 0.3 | 0.5 | 0.5 | 0.5 | 0.4 | 0.4 | 0.4 | 0.7 | 0.3 | 0.2 | 0.3 | 0.3 | 0.4 | Binding of serum 1a to linear peptides of protein X2 [2]: 0.5; Binding of serum 1b to linear peptides of protein X2 [2]: 0.4; Binding of serum 2 to linear peptides of protein X2 [2]: 0.4; Binding of serum 6 to linear peptides of protein X2 [2]: 0.5; Binding of serum 37 to linear peptides of protein X2 [2]: 0.5; Binding of serum 62 to linear peptides of protein X2 [2]: 0.6; Binding of serum London to linear peptides of protein X2 [2]: 0.4; Binding of serum SARS-green to linear peptides of protein X2 [2]: 0.5; Binding of serum SARS-yellow to linear peptides of protein X2 [2]: 0.4 |
| LLACLCKHKKVSTNL | 0.5 | 0.8 | 0.8 | 0.7 | 0.4 | 0.4 | 0.4 | 0.4 | 0.5 | 0.7 | 0.2 | 0.3 | 0.4 | 0.4 | 0.4 | Recognition of the peptide by sera of SARS-CoV infected individuals, and form (linear, looped/cyclic) in which it is recognized [2]: recognized in linear form |
| YFLQCINACRIIMRC | 0.6 | 0.8 | 0.7 | 0.6 |  |  |  |  |  |  |  |  |  | 0.1 | 0.8 | Binding of serum 1a to linear peptides of protein X1 of SARS-CoV Urbani [2]: 0.7; Binding of serum 1a to looped/cyclic peptide (PEPSCAN-ELISA) [2]: 0.6; Binding of serum 1b to linear peptides of protein X1 of SARS-CoV Urbani [2]: 0.6; Binding of serum 1b to looped/cyclic peptide (PEPSCAN-ELISA) [2]: 0.4; Binding of serum 2 to linear peptides of protein X1 of SARS-CoV Urbani [2]: 0.5; Binding of serum 2 to looped/cyclic peptide (PEPSCAN-ELISA) [2]: 0.4; Binding of serum 6 to linear peptides of protein X1 of SARS-CoV Urbani [2]: 0.5; Binding of serum 6 to looped/cyclic peptide (PEPSCAN-ELISA) [2]: 1.6; Binding of serum 37 to linear peptides of protein X1 of SARS-CoV Urbani [2]: 0.6; Binding of serum 37 to looped/cyclic peptide (PEPSCAN-ELISA) [2]: 0.5; Binding of serum 62 to linear peptides of protein X1 of SARS-CoV Urbani [2]: 0.6; Binding of serum 62 to looped/cyclic peptide (PEPSCAN-ELISA) [2]: 0.6; Binding of serum London to linear peptides of protein X1 of SARS-CoV Urbani [2]: 0.2; Binding of serum London to looped/cyclic peptide (PEPSCAN-ELISA) [2]: 1.6; Binding of serum SARS-green to linear peptides of protein X1 of SARS-CoV Urbani [2]: 0.3; Binding of serum SARS-green to looped/cyclic peptide (PEPSCAN-ELISA) [2]: 0.2; Binding of serum SARS-yellow to linear peptides of protein X1 of SARS-CoV Urbani [2]: 0.3; Binding of serum SARS-yellow to looped/cyclic peptide (PEPSCAN-ELISA) [2]: 0.6 |
